Measured values from paper PMC9155639 (Journal of Antimicrobial Chemotherapy, 2022).

How the values were obtained:
BpMip [1] = target: T1, BpMip (Burkholderia pseudomallei, UniProt Q63J95); test: biochemical
BpMip [2] = target: T1, BpMip; test: biochemical; type: binding, B. pseudomallei

T1 sequence (Q63J95 whole entry, added parts left off): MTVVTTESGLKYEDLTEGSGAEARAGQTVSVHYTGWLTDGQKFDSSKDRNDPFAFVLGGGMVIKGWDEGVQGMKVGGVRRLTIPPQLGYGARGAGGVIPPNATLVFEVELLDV

COc1cc(NC(=O)CCNC(=O)[C@@H]2CCCCN2S(=O)(=O)Cc2ccccc2)cc(OC)c1OC [SF339, (S)-1-(benzylsulfonyl)-N-(3-oxo-3-((3,4,5-trimethoxyphenyl)amino)propyl)piperidine-2-carboxamide]
IC50 (BpMip [1]): 260 nM
Ki (BpMip [1]; Ki (μM) Mean): 0.45 µM
effect on B. pseudomallei-induced cytotoxicity (B. pseudomallei K96243): no statistically significant difference
Kd (BpMip [2]): 10900 ± 200 nM
